Assay results from patent US6835715B1, “Mammalian dihydroouabain-like factor and therapeutic compositions” (University of Louisville Research Foundation, Inc., priority 1999, dated 2004).

Columns and labels:
[1] = tested on: anti-dihydroouabain antibody; assay: Dihydroouabain EIA, cross-reactivity with anti-dihydroouabain antibody; assay type: binding, rabbit; conditions: dihydroouabain = 100%
Procedure: OLF was measured using ouabain EIA. This assay uses ouabain covalently bound to the microtiter plate to compete with unbound samples or standards for binding to a constant amount of anti-ouabain antibody (Harris et al., 1991). Dihydroouabain-like immunoreactivity was measured by EIA using a polyclonal dihydroouabain-specific antibody prepared according to our specifications by HTI Bio-Product Inc (Ramona, Calif.). The antibody production strategy was as follows: dihydroouabain (dho) was conjugated to keyhole limpet hemocyanin (KLH) through the rhamnose sugar ring and the resulting conjugate was injected in three rabbits. Blood samples from the rabbits were drawn three weeks after the primary injection, and every two weeks after subsequent booster injections. […]
Briefly, immunoassay plates were coated with approximately 0.5 μg dho-BSA conjugate/well for a minimum of 18 hrs. at 4° C. […] Color development was monitored at 650 nm for a maximum of 30 min. after which the reaction was stopped with TMB Stop buffer and the plate was then read at 450 nm. The readings were adjusted with a system blank and for non-specific binding.
(§1) Two specific antibodies, one against ouabain and one against dihydroouabain, were used to characterize OLF and DH-OLF. […] The concentrations were determined using molar absorptivities as described above.

[2] = tested on: Na+,K+-ATPase α-subunits (porcine cerebral cortical tissue); assay: Ouabain-stimulated 32Pi phosphorylation of Na+,K+-ATPase alpha subunit; assay type: biochemical; conditions: equimolar concentrations; ouabain = 100%; listed as Dho
Procedure: The ouabain-stimulated phosphorylation of Na^+, K^+-ATPase by phosphate was performed as described in Huang et al., (1994) with some minor modifications. Since the covalently phosphorylated intermediate of the sodium pump formed from inorganic phosphorous (^32Pi) is alkali-labile (acid-stable phosphenzyme intermediate), acidic pH gel electrophoresis was used to resolve the radioactively labeled protein species. Briefly, 60 μl aliquots containing 100-200 μg of porcine cerebral cortical tissues (PCC) were pre-incubated at room temperature for 25 min. with 20 μl of sample in the reaction buffer (50 mM Tris-HCL and 2 mM MgCl2, pH 7.2). A positive control was pre-incubated with 20 μl of a 1 mM ouabain solution also, a negative control was pre-incubated with 20 μl of buffer alone. 10 μl of ^32Pi (1 mCi in 100 μl) was diluted with 250 μl of phosphoric acid and purified through 0.2 μm filter to remove polyphosphates. At the end of the incubation, 20 μl of the ^32Pi filtrate (30 μM, 8 uCi) was added to the mixture and allowed to incubate at room temperature for an additional 15 minutes. The reaction was terminated by the addition of 1 ml 8% HCLO4 which precipitated the proteins and left unincorporated ^32Pi in solution. […] Autoradiograms were quantitated using a soft laser scanning densitometer. […]

anti-ouabain antibody = assay: Ouabain EIA, cross-reactivity with anti-ouabain antibody; assay type: binding; conditions: for cross-reactivity with ouabain antibody: ouabain = 100%
Procedure: UV spectral properties, molar absorptivity, and concentrations of these endogenous factors were calculated.
OLF was measured using ouabain EIA. This assay uses ouabain covalently bound to the microtiter plate to compete with unbound samples or standards for binding to a constant amount of anti-ouabain antibody (Harris et al., 1991). Dihydroouabain-like immunoreactivity was measured by EIA using a polyclonal dihydroouabain-specific antibody prepared according to our specifications by HTI Bio-Product Inc (Ramona, Calif.). The antibody production strategy was as follows: dihydroouabain (dho) was conjugated to keyhole limpet hemocyanin (KLH) through the rhamnose sugar ring and the resulting conjugate was injected in three rabbits. Blood samples from the rabbits were drawn three weeks after the primary injection, and every two weeks after subsequent booster injections.
as §1, with “DH-OLF. Both of these antibodies are sensitive to structural changes at the lactone ring epitope of these molecules.” for “DH-OLF.”

[3] = biological target: porcine cerebral cortex Na+,K+-ATPase; assay: Inhibition of Na+,K+-ATPase catalytic activity (phosphate release from ATP); assay type: biochemical
Procedure: Dried frozen powder of porcine cerebral cortical tissue (PCC) was reconstituted at 1 Unit/ml in buffer containing; 50 mM Tris-HCl and 2 mM MgCl2, at a pH of 7.2. The reconstituted tissue was then washed three times and resuspended in the same buffer. The protein concentration was determined by BIO-RAD Protein Assay (Bio-Rad, Hercules, Calif.), adjusted to about 1 mg/ml and used both in the catalytic inhibition and ouabain-stimulated phosphorylation experiments (PAGE and Western analysis). The inhibition assay was performed briefly by pipetting 20 μl of sample containing the desired concentration of glycoside (Tris buffer was used for no-inhibitor control) into a well of a microtiter plate placed in a 37° C. water bath for 10 minutes. […] After the incubation period, we added 150 μl of molybdate solution (per liter, 1.0 mmol of molybdate, 11 mmol of sulfuric acid, and 142 ml of Tween 80: methanol solution (12:88 by vol). After 30 minutes of incubation, color development was allowed to proceed for a maximum of 30 min. after which the color intensity was measured by pipetting 150 μl of the reaction mixture from each well to a corresponding well on another microtiter plate. The color intensity is proportional to the release of phosphate ions which is a direct indicator of ATP breakdown and therefore NKA activity. The absorbances were measured simultaneously at 340 nm. […]

Row | SMILES | cross-reactivity with dihydroouabain antibody [1] [%] | phosphorylation activity relative to ouabain [2] [%] | affinity for anti-ouabain antibody (anti-ouabain antibody) | cross-reactivity with ouabain antibody (anti-ouabain antibody) | IC50 ([3]; porcine cerebral cortex enzyme, read-out: IC50 for inhibiting the catalytic activity of the Na+,K+-ATPase enzyme) [µM] | times less potent than ouabain for inhibition of Na+,K+-ATPase ([3]; relative to ouabain) [times]
1 | C[C@@H]1O[C@@H](O[C@H]2C[C@@H](O)[C@]3(CO)[C@H]4[C@H](O)C[C@]5(C)[C@@H]([C@@H]6COC(=O)C6)CC[C@]5(O)[C@@H]4CC[C@]3(O)C2)[C@H](O)[C@H](O)[C@H]1O [dihydroouabain, Dihydroouabain] | 100 | 82 | little affinity | 2-3% |  | 
2 | C[C@@H]1O[C@@H](O[C@H]2C[C@@H](O)[C@]3(CO)[C@H]4[C@H](O)C[C@]5(C)[C@@H]([C@@H]6COC(=O)C6)CC[C@]5(O)[C@@H]4CC[C@]3(O)C2)[C@H](O)[C@H](O)[C@H]1O [dho-B] |  |  |  |  | 1.7 | 3
3 | C[C@@H]1O[C@@H](O[C@H]2C[C@@H](O)[C@]3(CO)[C@H]4[C@H](O)C[C@]5(C)[C@@H](C6=CC(=O)OC6)CC[C@]5(O)[C@@H]4CC[C@]3(O)C2)[C@H](O)[C@H](O)[C@H]1O [ouabain, Ouabain] | 0.1 |  |  | 100% |  | 
